Measurements taken from PubChem BioAssay (NCI).
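Following 48 hours of exposure in 96-well plates, responses at five concentrations were used to interpolate endpoints linearly. TGI marks complete inhibition of growth.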

Columns and labels:
Test in all cases: NCI-60 cell line screen, 48 h
SK-MEL-5 melanoma = system: SK-MEL-5 melanoma
SF-268 CNS = system: SF-268 CNS
TK-10 renal = system: TK-10 renal
M14 melanoma = system: M14 melanoma
SF-539 CNS = system: SF-539 CNS
UACC-257 melanoma = system: UACC-257 melanoma
SK-MEL-2 melanoma = system: SK-MEL-2 melanoma
IGROV1 ovarian = system: IGROV1 ovarian
DU-145 prostate = system: DU-145 prostate
A498 renal = system: A498 renal
MALME-3M melanoma = system: MALME-3M melanoma
HOP-62 NSCLC = system: HOP-62 NSCLC
MOLT-4 leukemia = system: MOLT-4 leukemia

Structure (SMILES)	TGI (SK-MEL-5 melanoma)	TGI (SF-268 CNS)	TGI (TK-10 renal)	TGI (M14 melanoma)	TGI (SF-539 CNS)	TGI (UACC-257 melanoma)	TGI (SK-MEL-2 melanoma)	TGI (IGROV1 ovarian)	TGI (DU-145 prostate)	TGI (A498 renal)	TGI (MALME-3M melanoma)	TGI (HOP-62 NSCLC)	TGI (MOLT-4 leukemia)
C=C(Cl)CN1c2ccccc2C=Cc2ccccc21	20.3 µM	> 100 µM	> 100 µM	57.8 µM	75.2 µM	49.8 µM	40.6 µM	> 100 µM	> 100 µM	66.9 µM	77.9 µM	89.9 µM	–
CCOP(=O)(Cc1nc(C#N)c(N)o1)OCC	> 100 µM	> 100 µM	> 100 µM	–	–	> 100 µM	> 100 µM	> 100 µM	> 100 µM	> 100 µM	> 100 µM	> 100 µM	> 100 µM
O=C1c2cc3ncsc3cc2C(=O)c2c(O)ccc(O)c21	> 100 µM	> 100 µM	> 100 µM	> 100 µM	> 100 µM	> 100 µM	> 100 µM	> 100 µM	> 100 µM	> 100 µM	> 100 µM	> 100 µM	> 100 µM
Nc1c(C(=O)O)nnc2cc(Cl)ccc12	> 100 µM	> 100 µM	> 100 µM	> 100 µM	> 100 µM	> 100 µM	> 100 µM	> 100 µM	> 100 µM	> 100 µM	> 100 µM	> 100 µM	> 100 µM
NC(=S)NS(=O)(=O)c1ccc(Cl)cc1	> 100 µM	> 100 µM	> 100 µM	> 100 µM	> 100 µM	> 100 µM	> 100 µM	> 100 µM	> 100 µM	–	> 100 µM	> 100 µM	> 100 µM
CC1=NN2CCC(=O)N=C2S1	> 100 µM	> 100 µM	> 100 µM	> 100 µM	> 100 µM	> 100 µM	> 100 µM	> 100 µM	> 100 µM	–	> 100 µM	> 100 µM	> 100 µM
Cc1nccn1S(=O)(=O)c1ccc(Cl)cc1	> 100 µM	> 100 µM	> 100 µM	> 100 µM	> 100 µM	> 100 µM	> 100 µM	> 100 µM	> 100 µM	> 100 µM	> 100 µM	> 100 µM	> 100 µM
CC(C)N1[C@@H]2CCCC[C@H]2N(C(C)C)[P+]1=O	> 100 µM	> 100 µM	> 100 µM	> 100 µM	> 100 µM	> 100 µM	–	–	> 100 µM	> 100 µM	–	> 100 µM	> 100 µM
CC(C)(C)OC(=O)NNCC(O)COc1ccccc1 (centres undefined)	> 100 µM	> 100 µM	> 100 µM	> 100 µM	> 100 µM	> 100 µM	> 100 µM	> 100 µM	> 100 µM	> 100 µM	> 100 µM	> 100 µM	> 100 µM
Cc1ccc2c(c1)Nc1ccccc1P2(=O)O	> 100 µM	> 100 µM	> 100 µM	> 100 µM	> 100 µM	> 100 µM	> 100 µM	> 100 µM	> 100 µM	> 100 µM	> 100 µM	> 100 µM	> 100 µM
Fc1ccc2c(c1)nc1n2C(c2c(F)cccc2F)SC1 (centres undefined)	68.3 µM	> 100 µM	> 100 µM	> 100 µM	> 100 µM	> 100 µM	> 100 µM	> 100 µM	> 100 µM	> 100 µM	> 100 µM	> 100 µM	69 µM
COC(=O)/C=C\C(C#N)(C#N)N=Cc1ccc(Br)cc1	3.92 µM	31.1 µM	6.59 µM	22.6 µM	–	28 µM	44 µM	37 µM	16.7 µM	29.8 µM	12.4 µM	33.4 µM	> 22.4 µM
CCOC(=O)CCC(NC(=O)c1ccc(Nc2nc3ccccc3nc2C(=O)OCC)s1)C(=O)OCC (centres undefined)	> 100 µM	> 100 µM	> 100 µM	> 100 µM	> 100 µM	> 100 µM	> 100 µM	> 100 µM	> 100 µM	> 100 µM	> 100 µM	–	> 100 µM
COc1ccc(C2=Nc3c(nc(SC)[nH]c3=O)NC(c3ccccc3)C2)cc1 (centres undefined)	30.1 µM	–	–	66 µM	37.3 µM	57.4 µM	94.4 µM	55.6 µM	82.7 µM	> 100 µM	> 100 µM	> 100 µM	57.1 µM
Cc1ccsc1/C=N/Nc1cc(C)c2ccccc2n1	9 µM	42.2 µM	31.9 µM	34.4 µM	–	21 µM	51.2 µM	6.33 µM	32 µM	23 µM	–	78.8 µM	35.1 µM
CC(C)=C=CP(=O)(O)c1ccccc1	> 100 µM	> 100 µM	> 100 µM	> 100 µM	> 100 µM	> 100 µM	> 100 µM	> 100 µM	> 100 µM	> 100 µM	> 100 µM	> 100 µM	–
Cc1ccc(S(=O)(=O)NC(=O)NC(CC(=O)O)C(=O)O)cc1 (centres undefined)	> 100 µM	> 100 µM	> 100 µM	> 100 µM	> 100 µM	> 100 µM	> 100 µM	> 100 µM	> 100 µM	–	> 100 µM	> 100 µM	> 100 µM
Nc1ccc(C(=O)O)cc1	> 100 µM	> 100 µM	> 100 µM	> 100 µM	> 100 µM	> 100 µM	> 100 µM	> 100 µM	> 100 µM	–	> 100 µM	> 100 µM	> 100 µM
CC(=O)c1c(O)cc(O)c(-c2c(C)cc(O)c3c2C(=O)c2cccc(O)c2C3=O)c1O	–	36.8 µM	35.6 µM	51.4 µM	30.3 µM	40 µM	34.2 µM	29.8 µM	30.2 µM	29.1 µM	30.6 µM	40.5 µM	38.5 µM

Structure (SMILES)	TGI (SK-MEL-5 melanoma)	TGI (SF-268 CNS)	TGI (TK-10 renal)	TGI (M14 melanoma)	TGI (SF-539 CNS)	TGI (UACC-257 melanoma)	TGI (SK-MEL-2 melanoma)	TGI (IGROV1 ovarian)	TGI (DU-145 prostate)	TGI (A498 renal)	TGI (MALME-3M melanoma)	TGI (HOP-62 NSCLC)	TGI (MOLT-4 leukemia)
N#Cc1c(N2CCCC2)nsc1Nc1ccccc1	> 100 µM	> 100 µM	> 100 µM	> 100 µM	> 100 µM	> 100 µM	> 100 µM	> 100 µM	> 100 µM	> 100 µM	> 100 µM	–	> 100 µM
Cc1oc2nc(N(C)C)n3cnnc3c2c1C	> 100 µM	> 100 µM	> 100 µM	> 100 µM	> 100 µM	> 100 µM	> 100 µM	> 100 µM	> 100 µM	> 100 µM	–	> 100 µM	> 100 µM
COc1ccc(C2NC(N)=C(C#N)C3=C2C(C)CCC3)cc1OC (centres undefined)	> 100 µM	> 100 µM	> 100 µM	> 100 µM	> 100 µM	> 100 µM	> 100 µM	> 100 µM	> 100 µM	–	> 100 µM	75.7 µM	> 100 µM
NS(=O)(=O)c1ccc(NCc2nc3ccccc3[nH]2)cc1	> 100 µM	> 100 µM	> 100 µM	> 100 µM	> 100 µM	> 100 µM	> 100 µM	> 100 µM	> 100 µM	> 100 µM	> 100 µM	> 100 µM	–
Cn1c(-c2c(C3=CC(=O)N(c4ccccc4)C3=O)c3ccccc3n2C)cc2ccccc21	> 100 µM	–	> 100 µM	> 100 µM	> 100 µM	> 100 µM	> 100 µM	> 100 µM	> 100 µM	–	> 100 µM	> 100 µM	> 100 µM
CCc1n[nH]c(=O)[nH]1	> 100 µM	> 100 µM	> 100 µM	> 100 µM	> 100 µM	> 100 µM	> 100 µM	> 100 µM	> 100 µM	–	> 100 µM	> 100 µM	> 100 µM
COc1cccc(N(CN2C(=O)CCC2OC)C(C)=O)c1 (centres undefined)	> 100 µM	> 100 µM	> 100 µM	> 100 µM	> 100 µM	> 100 µM	> 100 µM	–	> 100 µM	> 100 µM	–	> 100 µM	> 100 µM
O=C1Nc2ccccc2SC1=C(C(=O)c1ccccc1)C(=O)c1ccccc1	> 100 µM	> 100 µM	> 100 µM	> 100 µM	> 100 µM	> 88 µM	67.1 µM	> 100 µM	> 100 µM	> 80.3 µM	> 100 µM	> 100 µM	–
CCOC(=O)C1CCCN1C(=O)c1ccccc1Cl (centres undefined)	> 100 µM	> 100 µM	> 100 µM	> 100 µM	> 100 µM	> 100 µM	–	> 100 µM	> 100 µM	> 100 µM	> 100 µM	> 100 µM	> 100 µM
O=NNc1c[nH]c(=O)[nH]c1=O	> 100 µM	–	> 100 µM	> 100 µM	> 100 µM	> 100 µM	> 100 µM	> 100 µM	> 100 µM	> 100 µM	> 100 µM	> 100 µM	> 100 µM
CCCCOc1ccc(S(=O)(=O)/N=C(\NO)Nc2ccc(Cl)cc2)cc1	28.1 µM	33.3 µM	28.7 µM	28.8 µM	37 µM	30.4 µM	31.6 µM	–	30.1 µM	26.7 µM	32.7 µM	32.4 µM	31.8 µM
Cn1c2ccccc2c2c3c(c4c5ccccc5n(C)c4c21)C(=O)N(c1ccccc1)C3=O	> 100 µM	–	> 100 µM	> 100 µM	> 100 µM	> 100 µM	> 100 µM	> 100 µM	> 100 µM	> 100 µM	> 100 µM	> 100 µM	> 100 µM
CCCCCCCCCCCCCCCCCCNc1nc(=O)n(C2CC(OP(=O)(O)OCC3OC(n4cc(F)c(=O)[nH]c4=O)CC3O)C(CO)O2)cc1F (centres undefined)	> 100 µM	37.1 µM	> 100 µM	43.3 µM	43.9 µM	> 100 µM	71 µM	> 100 µM	> 100 µM	> 100 µM	–	> 100 µM	41.9 µM
COc1cc(-c2nc(SC)nc3c2CCc2ccccc2-3)cc(OC)c1OC	> 100 µM	> 100 µM	–	> 100 µM	> 100 µM	> 100 µM	> 100 µM	> 100 µM	> 100 µM	> 100 µM	–	> 100 µM	96.2 µM
CC(C)(CO)CNc1cc(Cl)nc(N)n1	> 100 µM	> 100 µM	> 100 µM	–	> 100 µM	> 100 µM	> 100 µM	> 100 µM	> 100 µM	> 100 µM	> 100 µM	> 100 µM	> 100 µM
OCC(S)CS.[Bi] (centres undefined)	> 100 µM	28.4 µM	32.4 µM	29.5 µM	> 100 µM	27.9 µM	30 µM	54.9 µM	68.5 µM	56.3 µM	17.6 µM	50.9 µM	–
Cc1cc(OCc2nnc3n2N=C(c2cc(F)c(Cl)cc2Cl)/C(=C/c2ccc(-c4ccc(Cl)cc4)o2)S3)ccc1Cl	> 50 µM	> 50 µM	> 50 µM	> 50 µM	–	> 50 µM	> 50 µM	> 50 µM	> 50 µM	> 50 µM	> 50 µM	> 50 µM	> 50 µM
CCCCCCCCCCOc1ccc(N=Nc2nnc(-c3ccc(OCCCCC)cc3)s2)cc1	> 100 µM	> 100 µM	> 100 µM	> 100 µM	> 100 µM	> 100 µM	–	> 100 µM	> 100 µM	> 100 µM	> 100 µM	> 100 µM	> 100 µM
Clc1ncnc2c1nc(C#Cc1ccccc1)n2C1CCCCO1 (centres undefined)	5.06 µM	6.22 µM	5.11 µM	4.39 µM	4.28 µM	6.01 µM	6.49 µM	–	2.79 µM	8.84 µM	3.91 µM	6.38 µM	8.32 µM
